The source of these data is ChEMBL document CHEMBL1201862, “PubChem BioAssay data set” (2004).

Assay in all cases: inhibition of tumour cell growth, NCI panel, 48 h
Experiment [1] relates to 786-0.
Experiment [2] concerns A549.
The subject of experiment [3] is EKVX.
In experiment [4] the test system is HCC 2998.
Experiment [5] concerns HOP-92.
For experiment [6], the system named is Hs-578T.
Experiment [7] deals with IGROV-1.
Experiment [8] relates to K562.
Experiment [9] deals with MDA-MB-231.
In experiment [10] the test system is Malme-3M.
The test system of experiment [11] is NCI-H226.
Experiment [12] concerns OVCAR-5.
Experiment [13] relates to RPMI-8226.
Experiment [14] deals with SF-268.
Experiment [15] deals with SK-MEL-28.
For experiment [16], the system named is SK-MEL-5.
Experiment [17] has as its system SNB-75.
Experiment [18] concerns SR.
Experiment [19] relates to T47D.
Experiment [20] has as its system TK-10.

Structures are written as SMILES.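 Cultured in 96-well plates, cells were exposed to test compound for 48 hours across five concentrations. GI50 is the concentration that inhibits growth by half.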 The source made the active and inactive calls. No stated cut-off is given here; in the data, active = GI50 up to about 1.1 µM and inactive = higher.

On to `CC(C)(C)c1cc(OCc2nnc3sc(-c4ccc(Cl)cc4)nn23)c(Cl)cc1OCc1nnc2sc(-c3ccc(Cl)cc3)nn12`, for which the GI50 was 3.97 µM (inactive) in experiment [1]; 4.21 µM (inactive) in experiment [2]; 13.1 µM (inactive) in [3]; 2.34 µM (inactive) in experiment [4]; 0.895 µM (active) in [5]; 5.7 µM (inactive) in experiment [6]. Also, the GI50 in experiment [7] was 3.82 µM (inactive); in [8], 1.95 µM (inactive); in experiment [9] it was 8.15 µM (inactive); in experiment [10], 2.93 µM (inactive); in experiment [11], 17.3 µM (inactive); in [12] it was 29.7 µM (inactive). Further, the GI50 in [13] is 3.56 µM (inactive); in experiment [14], 6.97 µM (inactive); in experiment [15], 3.89 µM (inactive); in experiment [16] it was 0.726 µM (active); in experiment [17], 2.19 µM (inactive); in [18] it was 315 nM (active). Also, the GI50 in [19] is 1.97 µM (inactive); in experiment [20], 8.47 µM (inactive).
In the case of `Oc1c(CN2CCCC2)ccc2cccnc12`, the GI50 in [1] was 17.9 µM (inactive); in [2], 22.6 µM (inactive); in experiment [3] it was 12.3 µM (inactive); in [4], > 47.4 µM (inactive); in [5], 26.4 µM (inactive); in experiment [6], > 83.4 µM (inactive). Further, the GI50 in [7] is 18.8 µM (inactive); in experiment [8], > 33.5 µM (inactive); in experiment [9] it was 51.3 µM (inactive); in experiment [10], 25.1 µM (inactive); in experiment [11], 21.5 µM (inactive); in experiment [12], 31.6 µM (inactive). Besides, the GI50 in experiment [13] was 16.7 µM (inactive); in experiment [14] it was 24 µM (inactive); in experiment [15] it was 22.5 µM (inactive); in [16], 12.7 µM (inactive); in experiment [17], 37.5 µM (inactive); in [18], 12200 nM (inactive). Besides, the GI50 in experiment [19] is 23 µM (inactive); in [20], 12.4 µM (inactive).
Consider `CN(C)CCNC(=O)c1cccc2nc3cccc(F)c3nc12`, for which the GI50 in experiment [1] was 0.653 µM (active); in experiment [2] it was 0.53 µM (active); in experiment [3] it was 2.16 µM (inactive); in [4], 1.49 µM (inactive); in experiment [5], 1.22 µM (inactive); in experiment [6], 1.41 µM (inactive). The GI50 is 1.6 µM (inactive) in [7]; 1.29 µM (inactive) in experiment [8]; 1.32 µM (inactive) in experiment [9]; 2.04 µM (inactive) in experiment [10]; 1.24 µM (inactive) in experiment [11]; 2.6 µM (inactive) in experiment [12]. Besides, the GI50 is 0.8 µM (active) in [13]; 2.31 µM (inactive) in experiment [14]; 3.01 µM (inactive) in [15]; 1.13 µM (inactive) in experiment [16]; 2.62 µM (inactive) in experiment [17]; 570 nM (active) in [18]. In addition, the GI50 in experiment [19] is 3.31 µM (inactive); in experiment [20], 2 µM (inactive).
With `O=C(c1ccccc1)c1c(C(F)(F)F)[n+]([O-])c2ccccc2[n+]1[O-]`, the GI50 in experiment [1] is 1.92 µM (inactive); in experiment [2] it was 0.634 µM (active); in experiment [3], 2.17 µM (inactive); in experiment [4] it was 1.25 µM (inactive); in experiment [5], 0.207 µM (active); in [6], 3.15 µM (inactive). In addition, the GI50 was 0.188 µM (active) in experiment [7]; 0.209 µM (active) in [8]; 1.42 µM (inactive) in [9]; 2 µM (inactive) in [10]; 1.51 µM (inactive) in experiment [11]; 1.31 µM (inactive) in experiment [12]. For the same molecule, the GI50 was 0.237 µM (active) in experiment [13]; 0.995 µM (active) in [14]; 1.91 µM (inactive) in [15]; 1.87 µM (inactive) in experiment [16]; 1.26 µM (inactive) in experiment [17]; 73.8 nM (active) in experiment [18]. Also, the GI50 is 0.396 µM (active) in experiment [19] and 1.64 µM (inactive) in experiment [20].
As to `CC(=O)Nc1sc(Br)cc1S(=O)(=O)c1ccc(Cl)cc1`, the GI50 is 26.2 µM (inactive) in experiment [1]; 29.2 µM (inactive) in [2]; 37.2 µM (inactive) in [3]; 19.4 µM (inactive) in experiment [4]; 20.1 µM (inactive) in experiment [5]; 20 µM (inactive) in [6]. For the same molecule, the GI50 in [7] was 44.4 µM (inactive); in experiment [8] it was 21.1 µM (inactive); in experiment [9], > 100 µM (inactive); in experiment [10] it was 32.1 µM (inactive); in experiment [11], 19.1 µM (inactive); in experiment [12], 26.2 µM (inactive). Further, the GI50 was 23.2 µM (inactive) in [13]; 30.1 µM (inactive) in experiment [14]; 57.3 µM (inactive) in experiment [15]; > 10 µM (inactive) in experiment [16]; 28.2 µM (inactive) in [17]; 14600 nM (inactive) in experiment [18]. Besides, the GI50 was 32.1 µM (inactive) in experiment [19] and 46.7 µM (inactive) in [20].
